US9056835B2, “LPA2 receptor-specific benzoic acid derivatives” (University of Tennessee Research Foundation, priority 2012, dated 2015)

Assays:
LPA1 = molecular target: T1, LPA1 (Homo sapiens, UniProt Q92633); assay: LPA receptor-mediated Ca2+ mobilization assay, LPA1; format: cell-based; conditions: for inhibition of LPA1 Ca2+ response: 10 μM, ~EC75 LPA 18:1; for LPA1 Imax (%): inhibition by 10 μM compound of ~EC75 LPA 18:1 Ca2+ response; for EC50: agonist, Ca2+ mobilization
T1 construct: expressed in transfected cells
T1 sequence (Q92633 whole entry, species assumed): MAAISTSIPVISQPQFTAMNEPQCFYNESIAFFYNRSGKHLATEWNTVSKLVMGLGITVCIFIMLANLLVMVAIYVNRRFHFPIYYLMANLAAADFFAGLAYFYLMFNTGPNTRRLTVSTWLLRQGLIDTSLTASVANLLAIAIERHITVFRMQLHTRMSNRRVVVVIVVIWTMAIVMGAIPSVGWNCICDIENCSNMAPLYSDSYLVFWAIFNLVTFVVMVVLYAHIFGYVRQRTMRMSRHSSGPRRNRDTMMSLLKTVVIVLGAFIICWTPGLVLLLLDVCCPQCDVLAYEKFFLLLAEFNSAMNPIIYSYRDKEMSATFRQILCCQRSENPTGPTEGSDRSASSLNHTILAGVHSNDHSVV
Experimental: Similarity searches were performed separately using each fingerprint to quantitate similarity. Hits meeting the 80% similarity threshold from each search were ranked based on the Tanimoto coefficient measure of similarity to a target molecule NSC12404, and the top 75 unique hits from each fingerprint search were selected for further analysis. The 225 compounds selected for further analysis were clustered based on Tanimoto coefficients calculated using Molecular ACCess System-key fingerprints (MACCS keys) and evaluated using the diversity subset function implemented in MOE. This selected a diverse subset of 27 compounds for biological evaluation by choosing the middle compounds in each cluster. These 27 compounds were tested in Ca^2+ mobilization assays at a concentration of 10 μM using stable cell lines individually expressing LPA2 and also in vector-transfected control cells. Hits activating LPA2 were further tested using cells expressing the other established and putative LPA GPCRs. Experimental testing of the selected compounds identified the three new selective LPA2 agonists: GRI977143, H2L5547924, and H2L5828102. […] They arbitrarily selected GRI977143 for further characterization in cell-based assays.
J Biol Chem (2009) 284(25): 17304-17319). […] The cells were loaded with Fura-2-acetoxymethyl esther (Fura-2/AM) in Krebs buffer containing 0.01% pluronic acid for 30 min and rinsed with Krebs buffer before measuring Ca^2+ mobilization. The ratio of peak emissions at 510 nm after 2 min of ligand addition was determined for excitation wavelengths of 340 nm/380 nm. All samples were run in quadruplicate. […] The half maximally effective concentration (EC50), and inhibitory constant (Ki) values were calculated by fitting a sigmoid function to dose-response data points using KaleidaGraph software (version 4.1, Synergy Software; […]).
Mouse embryonic fibroblast (MEF) cells were isolated from E13.5 LPA1&2 double knockout (DKO) embryos. MEFs were transduced with empty vector or LPA2-containing lentiviruses and selected with 1.5 μg/ml puromycin. Cells were maintained in Dulbecco's modified Eagle medium (DMEM) supplemented with 10% (V/V) fetal bovine serum (FBS), 2 mM L-glutamine, 100 U/mL penicillin, and 100 μg/mL streptomycin. Serum-free medium contained 0.1% (W/V) BSA in DMEM. The rat intestinal epithelial cell line 6 (IEC-6) was obtained from the American Type Culture Collection (Rockville, Md.) at passage 13; passages 16-21 were used in all experiments. IEC-6 cells were maintained in a humidified 37° C. incubator in an atmosphere of 90% air and 10% CO2. Growth medium consisted of DMEM supplemented with 5% heat inactivated FBS, 10 μg/mL insulin, and 50 μg/mL gentamycin. The composition of the serum-starvation medium was the same as that of the full growth medium except that it contained no FBS. The McArdle rat hepatoma cell line (RH7777) stably expressing LPA2 receptors was a gift from Dr. Fumikazu Okajima (Gunma University, Maebashi, Japan). RH7777 cells stably expressing LPA1 or LPA3 receptors were generated in-house and had been characterized earlier. Wild type and LPA receptor (LPAR) stably transfected RH7777 cells were grown in DMEM supplemented with 10% FBS and 2 mM L-glutamine in the presence of 250 μg/ml G418. Chinese hamster ovary (CHO) cells stably expressing either vector or LPA4 receptor were a kind gift from Dr. Takao Shimizu (Tokyo University; Tokyo, Japan). Cells were cultured in Ham's F12 medium containing 10% FBS, 2 mM L-glutamine, and 350 μg/ml G418. Rat neuroblastoma cells (B103) were transduced with the lentivirus harboring wild type of FLAG-LPA5 and selected with puromycin to establish the stable cell lines. The stable cells were maintained in DMEM supplemented with 10% FBS and 0.4 μg/ml puromycin. GPR87- and P2Y10-expressing CHO cells and vector-transfected control cells were a gift from Dr. Norihisha Fujita (Ritsumeikan University; Shiga, Japan). […]

[1] = tested on: vector- and LPA2-transduced MEF cells; assay: Adriamycin-induced apoptosis, DNA fragmentation ELISA; format: cell-based, mouse; conditions: GRI977143 10 μM
Experimental: (§1) Experiments were performed on vector- and LPA2-transduced MEF cells. To measure caspase 3, 7, 8, or 9 activity and DNA fragmentation, cells were plated in 48-well plates (2×10^4 cells/well). To detect PARP-1 cleavage and Bax translocation, 1.5×10^6 cells were plated in 10-cm dishes and cultured overnight in full growth medium. The next morning, the growth medium was replaced by serum-starvation medium and cells were pretreated for 1 h with LPA (1-10 μM), OTP (1-10 μM), GRI977143 (1-10 μM), or vehicle. Caspase activity, DNA fragmentation, PARP-1 cleavage, and Bax translocation were measured 5 h after incubation with 1.7 μM Adriamycin or 24 h after serum withdrawal.
(§2) Apoptotically-challenged cells were washed twice with PBS, and a quantitative DNA fragmentation assay was carried out using a Cell Death Detection ELISA PLUS kit (Roche Diagnostics, Penzberg, Germany) and normalized to protein concentration using the BCA Protein Assay Kit (Thermo Fisher Scientific, Inc.; Rockford, Ill.) as described previously (Valentine et al., 2010). Aliquots of nuclei-free cell lysate were placed in streptavidin-coated wells and incubated with anti-histone-biotin antibody and anti-DNA peroxidase-conjugated antibody for 2 h at room temperature. After the incubation, the sample was removed, and the wells were washed and incubated with 100 μl 2,2′-azino-di[3-ethylbenzthiazolin-sulfonate substrate at room temperature before the absorbance was read at 405 nm. Results were expressed as absorbance at 405 nm/min/mg protein as detailed in our previous report (Ray et al., Mdm2 inhibition induces apoptosis in p53 deficient human colon cancer cells by activating p73- and E2F1-mediated expression of PUMA and Siva-1. Apoptosis (2011) 16(1): 35-44).

IEC-6 cells = assay: TNF-α/CHX-induced apoptosis, DNA fragmentation; format: cell-based, rat; conditions: OTP 10 μM, LPA 1 μM, GRI977143 10 μM
Experimental: Confluent serum-starved IEC-6 cells were treated with or without TNF-α (10 ng/ml)/cycloheximide (CHX) (20 μg/ml) in the presence of OTP (10 μM), GRI977143 (10 μM), or LPA (1 μM) for 3 h. Cells were washed twice with PBS and the quantitative DNA fragmentation assay was carried out as described previously (Valentine et al., (S)—FTY720-vinylphosphonate, an analogue of the immunosuppressive agent FTY720, is a pan-antagonist of sphingosine 1-phosphate GPCR signaling and inhibits autotaxin activity. Cell Signal (2010) 22(10): 1543-1553).
as §2

[2] = tested on: vector- and LPA2-transduced MEF cells; assay: Serum withdrawal-induced apoptosis (caspase activity, DNA fragmentation); format: cell-based, mouse; conditions: for reduction of apoptotic indicators: vector-transduced MEF
Experimental: as §1
Caspase-Glow® 3/7, Caspase-Glow® 8 and Caspase-Glow® 9 reagents were purchased from Promega (Madison, Wis.) and used according to the manufacturer's instructions. Briefly, cells were lysed by adding 50 μl of lysis reagent per well, followed by shaking for 30 min at room temperature. […] lysate were transferred to a 96-well white-wall plate, and luminescence was measured using a BioTek® (Winooski, Vt.) plate reader.
as §2

[3] = LPA2-transduced MEF, LPA and OTP 3 μM

Row | Compound | inhibition of LPA1 Ca2+ response (LPA1) | LPA1 Imax (%) (LPA1) | reduction of DNA fragmentation [1, 3] [%] | reduction of DNA fragmentation ([1]; vector-transduced MEF) [%] | DNA fragmentation induced by TNF-α/CHX (IEC-6 cells) | DNA fragmentation ([2]; LPA2-transduced MEF, 10 μM) | reduction of caspase 3, 7, 8, and 9 activation ([2]; LPA2-transduced MEF, 10 μM) | reduction of apoptotic indicators [2] | EC50 (LPA1) [nM]
1 | O=C(O)c1cc(Cl)c(Cl)cc1C(=O)Nc1ccc2c(c1)C(=O)c1ccccc1-2 [Compound H2L5547924] | partially inhibited | 21 |  |  |  |  |  |  | 
2 | O=C(O)c1ccccc1C(=O)Nc1ccc2c(c1)C(=O)c1ccccc1C2=O [Compound H2L5828102] | partially inhibited | 29 |  |  |  |  |  |  | 
3 | O=C(O)c1ccccc1SCCCN1C(=O)c2cccc3cccc(c23)C1=O [GRI977143] |  |  | 41±2 | 7±1 | significantly reduced | attenuated DNA fragmentation | highly effective | failed to cause any reduction | 
4 | CCCCCCCC/C=C\CCCCCCCC(=O)OC[C@@H](O)COP(=O)(O)O [LPA 18:1, Lysophosphatidic acid (18:1)] |  |  | 35±4 |  | significantly reduced |  |  | protected the vector-transduced MEF cells too | 130
5 | O=C(O)c1ccccc1C(=O)Nc1ccc2c(c1)C(=O)c1ccccc1-2 [NSC12404] |  |  |  |  |  |  |  |  | > 10000
6 | octadecenyl thiophosphate [OTP] |  |  | 32±1 |  | completely blocked |  |  | protected the vector-transduced MEF cells too | 651
